Assay results taken from patent publication US12331054B2, “Perk inhibiting imidazolopyrazine compounds” (HiberCell, Inc., priority 2019, dated 2025).

Key:
[1] = molecular target: Recombinant human EIF2AK3 (PERK) catalytic domain (amino acids 536-1116) (Homo sapiens (Human), UniProt Q9NZJ5); assay: PERK In Vitro Activity Assay (isolated), TR-FRET kinase assay; conditions: isolated PERK enzyme, 1.5 μM ATP, read-out: Biochemical IC50
How it was run: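 Recombinant PERK catalytic domain was incubated with 100–200 nM GFP-eIF2a substrate in 50 mM HEPES pH 7.5, 10 mM MgCl2, 1.0 mM EGTA and 0.01% Brij-35 for 45 min at room temperature. After a 10 mM EDTA stop, 2 nM Tb-anti-phospho-eIF2a was added for 90 min, and IC50 was fitted from TR-FRET ratios by 4-parameter logistic regression.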

[2] = system: eIF2α in HEK293-EGFP-eIF2α cells; assay: PERK Cellular Assay (HEK293-EGFP-eIF2α cells, tunicamycin-induced ER stress, TR-FRET); assay type: cell-based; conditions: tunicamycin 2 hours
How it was run: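 Cells pre-incubated with inhibitor 30 min at 37 °C, then ER stress induced with […] tunicamycin for 2 h. TR-FRET read on lysates; ratio normalized to DMSO control as percent inhibition over a 10-point, 3-fold dilution series; IC50 from 4-parameter logistic fit.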

Chain of Recombinant human EIF2AK3 (PERK) catalytic domain (amino acids 536-1116) (Q9NZJ5 536-1116): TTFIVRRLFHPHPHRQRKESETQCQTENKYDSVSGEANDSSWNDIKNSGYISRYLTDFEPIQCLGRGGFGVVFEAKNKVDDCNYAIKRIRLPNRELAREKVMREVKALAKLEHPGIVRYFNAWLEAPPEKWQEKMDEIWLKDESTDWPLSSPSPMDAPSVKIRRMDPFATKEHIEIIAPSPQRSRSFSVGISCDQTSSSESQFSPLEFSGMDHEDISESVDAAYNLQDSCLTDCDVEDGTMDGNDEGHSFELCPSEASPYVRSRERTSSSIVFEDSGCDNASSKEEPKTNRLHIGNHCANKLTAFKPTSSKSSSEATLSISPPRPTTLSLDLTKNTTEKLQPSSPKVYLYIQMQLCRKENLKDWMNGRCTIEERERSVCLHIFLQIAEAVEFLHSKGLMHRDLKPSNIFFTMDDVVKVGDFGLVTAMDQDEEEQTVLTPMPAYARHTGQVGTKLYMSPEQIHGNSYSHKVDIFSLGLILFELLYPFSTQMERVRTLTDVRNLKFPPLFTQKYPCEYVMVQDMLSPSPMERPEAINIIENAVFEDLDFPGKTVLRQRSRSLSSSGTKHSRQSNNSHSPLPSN

Structure (SMILES): [2H]C([2H])([2H])c1nc(-c2ccc(NC(=O)C(O)c3cccc(F)c3)c(F)c2)c2c(N)ncc(C)n12 (centres unmarked) [Example 123, N-[4-[8-amino-5-methyl-3-(trideuteriomethyl)imidazo[1,5-a]pyrazin-1-yl]-2-fluoro-phenyl]-2-(3-fluorophenyl)-2-hydroxy-acetamide]
- IC50 [1]: 1 to 25 nM
- IC50 [2]: 1 to 25 nM

Structure (SMILES): Cc1cnc(N)c2c(-c3ccc(NC(=O)C(O)c4cccc(F)c4)c(F)c3)nc(C)n12 (centres unmarked) [Example 124, N-(4-(8-amino-3,5-dimethyl-imidazo[1,5-a]pyrazin-1-yl)-2-fluorophenyl)-2-(3-fluorophenyl)-2-hydroxy-acetamide]
- IC50 [1]: 26 to 50 nM
- IC50 [2]: 501 to 1000 nM

Structure (SMILES): Cc1cnc(N)c2c(-c3ccc(NC(=O)C(O)c4cccc(F)c4)c(F)c3)nc(C)n12 (centres unmarked) [Example 125, N-(4-(8-amino-3,5-dimethyl-imidazo[1,5-a]pyrazin-1-yl)-2-fluorophenyl)-2-(3-fluorophenyl)-2-hydroxy-acetamide]
- IC50 [1]: 1 to 25 nM
- IC50 [2]: 1 to 25 nM

Structure (SMILES): Cc1cnc(N)c2c(-c3ccc(NC(=O)C(O)c4cccc(F)c4)cc3OC(F)(F)F)nc(C)n12 (centres unmarked) [Example 126, N-(4-(8-amino-3,5-dimethyl-imidazo[1,5-a]pyrazin-1-yl)-3-(trifluoromethoxy)phenyl)-2-(3-fluorophenyl)-2-hydroxyacetamide]
- IC50 [1]: 101 to 250 nM
- IC50 [2]: 501 to 1000 nM

Structure (SMILES): Cc1cnc(N)c2c(-c3ccc(NC(=O)C(O)c4cccc(F)c4)cc3OC(F)(F)F)nc(C)n12 (centres unmarked) [Example 127, N-(4-(8-amino-3,5-dimethyl-imidazo[1,5-a]pyrazin-1-yl)-3-(trifluoromethoxy)phenyl)-2-(3-fluorophenyl)-2-hydroxyacetamide]
- IC50 [1]: 1 to 25 nM
- IC50 [2]: 101 to 250 nM

Structure (SMILES): Cc1cn2c(C)nc(-c3ccc(NC(=O)C(O)c4cccc(F)c4)c(F)c3F)c2c(N)n1 (centres unmarked) [Example 128, N-(4-(8-amino-3,6-dimethyl-imidazo[1,5-a]pyrazin-1-yl)-2,3-difluoro-phenyl)-2-(3-fluorophenyl)-2-hydroxyacetamide]
- IC50 [1]: 1 to 25 nM
- IC50 [2]: 1 to 25 nM

Structure (SMILES): Cc1cn2c(C)nc(-c3ccc(NC(=O)C(O)c4cccc(F)c4)c(F)c3F)c2c(N)n1 (centres unmarked) [Example 129, N-(4-(8-amino-3,6-dimethyl-imidazo[1,5-a]pyrazin-1-yl)-2,3-difluoro-phenyl)-2-(3-fluorophenyl)-2-hydroxyacetamide]
- IC50 [1]: 501 to 1000 nM
- IC50 [2]: > 5000 nM

Structure (SMILES): [2H]C([2H])([2H])c1nc(-c2ccc(NC(=O)C(O)c3cccc(F)c3)c(F)c2F)c2c(N)nc(C)cn12 (centres unmarked) [Example 130, N-[4-[8-amino-6-methyl-3-(trideuteriomethyl)imidazo[1,5-a]pyrazin-1-yl]-2,3-difluoro-phenyl]-2-(3-fluoro-phenyl)-2-hydroxy-acetamide]
- IC50 [1]: 1 to 25 nM
- IC50 [2]: 1 to 25 nM

Structure (SMILES): [2H]C([2H])([2H])c1nc(-c2ccc(NC(=O)C(O)c3cccc(F)c3)c(F)c2F)c2c(N)nc(C)cn12 (centres unmarked) [Example 131, N-[4-[8-amino-6-methyl-3-(trideuteriomethyl)imidazo[1,5-a]pyrazin-1-yl]-2,3-difluoro-phenyl]-2-(3-fluoro-phenyl)-2-hydroxy-acetamide]
- IC50 [1]: 501 to 1000 nM
- IC50 [2]: 3000 to 4000 nM

Structure (SMILES): [2H]C([2H])([2H])c1nc(-c2ccc(NC(=O)C(O)c3cccc(F)c3)c(F)c2F)c2c(N)ncc(C)n12 (centres unmarked) [Example 132, N-[4-[8-amino-5-methyl-3-(trideuteriomethyl)imidazo[1,5-a]pyrazin-1-yl]-2,3-difluoro-phenyl]-2-(3-fluoro-phenyl)-2-hydroxy-acetamide]
- IC50 [1]: 1 to 25 nM
- IC50 [2]: 1 to 25 nM

Structure (SMILES): [2H]C([2H])([2H])c1nc(-c2ccc(NC(=O)C(O)c3cccc(F)c3)c(F)c2F)c2c(N)ncc(C)n12 (centres unmarked) [Example 133, N-[4-[8-amino-5-methyl-3-(trideuteriomethyl)imidazo[1,5-a]pyrazin-1-yl]-2,3-difluoro-phenyl]-2-(3-fluoro-phenyl)-2-hydroxy-acetamide]
- IC50 [1]: 1 to 25 nM
- IC50 [2]: 101 to 250 nM

Structure (SMILES): [2H]C([2H])([2H])c1nc(-c2ccc(NC(=O)C(O)c3cccc(F)c3)c(F)c2F)c2c(N)ncc(C(F)(F)F)n12 (centres unmarked) [Example 134, N-[4-[8-amino-3-(trideuteriomethyl)-5-(trifluoromethyl)imidazo[1,5-a]pyrazin-1-yl]-2,3-difluoro-phenyl]-2-(3-fluorophenyl)-2-hydroxy-acetamide]
- IC50 [1]: 1 to 25 nM
- IC50 [2]: 1 to 25 nM

Structure (SMILES): [2H]C([2H])([2H])c1nc(-c2ccc(NC(=O)C(O)c3cccc(F)c3)c(F)c2F)c2c(N)ncc(C(F)(F)F)n12 (centres unmarked) [Example 135, N-[4-[8-amino-3-(trideuteriomethyl)-5-(trifluoromethyl)imidazo[1,5-a]pyrazin-1-yl]-2,3-difluoro-phenyl]-2-(3-fluorophenyl)-2-hydroxy-acetamide]
- IC50 [1]: 101 to 250 nM
- IC50 [2]: 501 to 1000 nM

Structure (SMILES): [2H]C([2H])([2H])c1nc(-c2ccc(NC(=O)C(O)c3cccc(F)c3)c(F)c2F)c2c(N)ncc(Cl)n12 (centres unmarked) [Example 136, N-[4-[8-amino-5-chloro-3-(trideuteriomethyl)imidazo[1,5-a]pyrazin-1-yl]-2,3-difluoro-phenyl]-2-(3-fluoro-phenyl)-2-hydroxy-acetamide]
- IC50 [1]: 1 to 25 nM
- IC50 [2]: 1 to 25 nM

Structure (SMILES): [2H]C([2H])([2H])c1nc(-c2ccc(NC(=O)C(O)c3cccc(F)c3)c(F)c2F)c2c(N)ncc(Cl)n12 (centres unmarked) [Example 137, N-[4-[8-amino-5-chloro-3-(trideuteriomethyl)imidazo[1,5-a]pyrazin-1-yl]-2,3-difluoro-phenyl]-2-(3-fluoro-phenyl)-2-hydroxy-acetamide]
- IC50 [1]: 1 to 25 nM
- IC50 [2]: 251 to 500 nM

Structure (SMILES): [2H]C([2H])([2H])c1nc(-c2ccc(NC(=O)C(O)c3cccc(Cl)c3)c(F)c2F)c2c(N)ncc(C)n12 (centres unmarked) [Example 138, N-[4-[8-amino-5-methyl-3-(trideuteriomethyl)imidazo[1,5-a]pyrazin-1-yl]-2,3-difluoro-phenyl]-2-(3-chloro-phenyl)-2-hydroxy-acetamide]
- IC50 [1]: 1 to 25 nM
- IC50 [2]: 1 to 25 nM

Structure (SMILES): [2H]C([2H])([2H])c1nc(-c2ccc(NC(=O)C(O)c3cccc(Cl)c3)c(F)c2F)c2c(N)ncc(C)n12 (centres unmarked) [Example 139, N-[4-[8-amino-5-methyl-3-(trideuteriomethyl)imidazo[1,5-a]pyrazin-1-yl]-2,3-difluoro-phenyl]-2-(3-chlorophenyl)-2-hydroxy-acetamide]
- IC50 [1]: 1 to 25 nM
- IC50 [2]: 101 to 250 nM

Structure (SMILES): [2H]C([2H])([2H])c1nc(-c2ccc(NC(=O)C(O)c3cccc(Cl)c3)c(F)c2F)c2c(N)nc(C)cn12 (centres unmarked) [Example 140, N-[4-[8-amino-6-methyl-3-(trideuteriomethyl)imidazo[1,5-a]pyrazin-1-yl]-2,3-difluoro-phenyl]-2-(3-chlorophenyl)-2-hydroxy-acetamide]
- IC50 [1]: 1 to 25 nM
- IC50 [2]: 1 to 25 nM

Structure (SMILES): [2H]C([2H])([2H])c1nc(-c2ccc(NC(=O)C(O)c3cccc(Cl)c3)c(F)c2F)c2c(N)nc(C)cn12 (centres unmarked) [Example 141, N-[4-[8-amino-6-methyl-3-(trideuteriomethyl)imidazo[1,5-a]pyrazin-1-yl]-2,3-difluoro-phenyl]-2-(3-chlorophenyl)-2-hydroxy-acetamide]
- IC50 [1]: 51 to 100 nM
- IC50 [2]: 501 to 1000 nM
